Results as given in patent publication US11661396B2, “Crystalline forms of zuclomiphene citrate” (Apotex Inc., priority 2020, dated 2023).
Structures can show the parent of a compound that is named as a salt.

Experiments:
[1] = PXRD studies of capped and uncapped samples maintained in a 40° C./75% RH stability chamber; assay type: physicochemical
Protocol: Zuclomiphene citrate Form APO-1 can be characterized by a PXRD diffractogram comprising, among other peaks, characteristic peaks, expressed in degrees 2θ (±0.2°), at 8.8°, 9.6° and 11.7°. Preferably, the PXRD diffractogram further comprises at least three peaks, expressed in degrees 2θ (±0.2°), selected from the group consisting of 10.9°, 12.4°, 14.7°, 14.9°, 17.3°, 17.8°, 18.6°, 19.9°, 20.5°, 23.6° and 25.4°. More preferably, the PXRD diffractogram further comprises peaks, expressed in degrees 2θ (±) 0.2°, at 10.9°, 12.4°, 14.7°, 14.9°, 17.3°, 17.8°, 18.6°, 19.9°, 20.5°, 23.6° and 25.4°.
Zuclomiphene citrate Form APO-III can be characterized by a PXRD diffractogram comprising, among other peaks, characteristic peaks, expressed in degrees 2θ (±0.2°), at 8.7°, 9.8° and 10.5°. Preferably, the PXRD diffractogram further comprises at least three peaks, expressed in degrees 2θ (±0.2°), selected from the group consisting of 11.6°, 12.3°, 15.3°, 16.9°, 18.0°, 18.6°, 19.4°, 20.4°, 21.0° and 24.5°. More preferably, the PXRD diffractogram further comprises peaks, expressed in degrees 2θ (±0.2°), at 11.6°, 12.3°, 15.3°, 16.9°, 18.0°, 18.6°, 19.4°, 20.4°, 21.0° and 24.5°. […]
PXRD diffractograms were recorded on a Bruker D8 Discover powder X-ray diffractometer (Bruker-AXS, Karlsruhe, Germany). […] Raw data were evaluated using the program EVA (Bruker-AXS, Karlsruhe, Germany).

[2] = Thermodynamic stability of the crystalline form; assay type: physicochemical
Source text: Zuclomiphene citrate Form APO-IV can be prepared by gradual addition of a solution of citric acid in a suitable solvent, preferably an alcohol or ketone solvent such as methanol or acetone, to a solution of zuclomiphene free base in a suitable solvent, preferably an alcohol solvent such as 2-methyl-1-propanol or 1-butanol, more preferably an ester solvent, such as ethyl acetate. Preferably, the solution of zuclomiphene free base is heated to an elevated temperature prior to addition of the citric acid solution, preferably in the range of about 50° C. to about 70° C. Following addition, the resulting mixture is preferably charged with Form APO-IV seeds and maintained at elevated temperature for a time (′aged), preferably in the range of about 16 hours to about 4 days, more preferably in the range of about 16 hours to about 48 hours. Following aging, the resulting mixture is preferably cooled to a temperature in the range of about 0° C. to about 35° C., most preferably room temperature, prior to isolation of the solid by filtration and drying, if necessary. Drying can be conducted in vacuo, preferably at a temperature in the range of about 50° C. to about 70° C., preferably for about 18 hours to about 3 days.

[3] = tested on: hot flashes in men with prostate cancer on androgen deprivation therapy; conditions: 50 mg zuclomiphene citrate, interim Phase 2 clinical trial results; cited from earlier work

With CCN(CC)CCOc1ccc(/C(=C(\Cl)c2ccccc2)c2ccccc2)cc1 [Form APO-I, zuclomiphene citrate] the “change in the crystalline form (PXRD)” value ([1]; at least 4 weeks) was “no change in the crystalline form occurred”.
With CCN(CC)CCOc1ccc(/C(=C(\Cl)c2ccccc2)c2ccccc2)cc1 [Form APO-III, zuclomiphene citrate] the “change in the crystalline form (PXRD)” value ([1]; at least 8 weeks) was “no change in the crystalline form occurred”.
In the case of CCN(CC)CCOc1ccc(/C(=C(\Cl)c2ccccc2)c2ccccc2)cc1 [Form APO-IV, zuclomiphene citrate], the thermodynamic stability [2] is reported as “thermodynamically stable”.
For CCN(CC)CCOc1ccc(/C(=C(\Cl)c2ccccc2)c2ccccc2)cc1 [zuclomiphene citrate, 2-[4-[(Z)-2-chloro-1,2-diphenylethenyl]phenoxy]-N,N-diethylethanamine], the “decrease in moderate to severe hot flashes from baseline” value [3] is listed as “statistically significant decrease”.
